According to patent US20110076293A1, “TRIPTOLIDE DERIVATIVES FOR MODULATION OF APOPTOSIS AND IMMUNOSUPPRESSION” (priority 2002, published 2011):
Like-named read-outs stand apart in the source and are kept apart here.

Tested on: Jurkat human T lymphocyte cell line
Test: Apoptosis assay (Annexin V) of compounds incubated with human serum
Conditions: for EC50: read-out: ED50 (nM) in apoptosis assay after incubation with serum, 37° C.
In short: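 Test compounds at 20 mM were preincubated in pooled human serum at 37° C for varying times, then serially diluted to final 1–10,000 nM. Jurkat cells (1×10^5 per well) were exposed for 24 h at 37° C, and apoptosis was scored by Annexin V-FITC flow cytometry. ED50 came from dose-response curves, and % conversion was expressed relative to the triptolide ED50 in the same serum.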

[1] = Table 3, human serum, 0 hr, 10000 nM
[2] = Table 3, human serum, 48 hr, 1 nM
[3] = Table 3, human serum, 48 hr, 3 nM
[4] = Table 3, human serum, 48 hr, 10 nM
[5] = Table 3, human serum, 48 hr, 30 nM
[6] = Table 3, human serum, 48 hr, 100 nM
[7] = Table 3, human serum, 48 hr, 300 nM
[8] = Table 3, human serum, 48 hr, 1000 nM
[9] = Table 3, human serum, 48 hr, 3000 nM
[10] = Table 3, human serum, 48 hr, 10000 nM
[11] = Table 4, serum, 48 hr, 10000 nM
[12] = Table 5, human serum (48 hrs), 1 nM
[13] = Table 5, human serum (48 hrs), 3 nM
[14] = Table 5, human serum (48 hrs), 10 nM
[15] = Table 5, human serum (48 hrs), 30 nM
[16] = Table 5, human serum (48 hrs), 100 nM
[17] = Table 5, human serum (48 hrs), 300 nM
[18] = Table 5, human serum (48 hrs), 1000 nM
[19] = Table 5, human serum (48 hrs), 3000 nM
[20] = incubation time in human serum 0.5 hours
[21] = incubation time in human serum 1 hour
[22] = incubation time in human serum 24 hours
[23] = incubation time in human serum 48 hours
[24] = after 48 hr. incubation in human serum

## CC(C)[C@]12O[C@H]1[C@@H]1O[C@]13[C@]1(O[C@H]1C[C@H]1C4=C(CC[C@@]13C)C(=O)OC4)[C@@H]2O [PG490, Triptolide]
[1]
  % apoptotic cells at given concentration (nM): 94.9%
[2]
  % apoptotic cells at given concentration (nM): 8.5%
[3]
  % apoptotic cells at given concentration (nM): 8.5%
[4]
  % apoptotic cells at given concentration (nM): 8.5%
[5]
  % apoptotic cells at given concentration (nM): 26.2%
[6]
  % apoptotic cells at given concentration (nM): 91.7%
[7]
  % apoptotic cells at given concentration (nM): 93.4%
[8]
  % apoptotic cells at given concentration (nM): 94.6%
[9]
  % apoptotic cells at given concentration (nM): 95.2%
[10]
  % apoptotic cells at given concentration (nM): 95.4%
Table 3, medium only, 10000 nM
  % apoptotic cells at given concentration (nM): 96.5%
Table 4, medium, 10000 nM
  % apoptotic cells at given concentration (nM): 93.4%
Table 4, serum, 0 hr, 10000 nM
  % apoptotic cells at given concentration (nM): 92.1%
Table 4, serum, 48 hr, 0.03 nM
  % apoptotic cells at given concentration (nM): 7.0%
Table 4, serum, 48 hr, 0.1 nM
  % apoptotic cells at given concentration (nM): 6.9%
Table 4, serum, 48 hr, 0.3 nM
  % apoptotic cells at given concentration (nM): 6.8%
Table 4, serum, 48 hr, 1 nM
  % apoptotic cells at given concentration (nM): 6.4%
Table 4, serum, 48 hr, 3 nM
  % apoptotic cells at given concentration (nM): 7.0%
Table 4, serum, 48 hr, 10 nM
  % apoptotic cells at given concentration (nM): 7.1%
Table 4, serum, 48 hr, 30 nM
  % apoptotic cells at given concentration (nM): 29.4%
Table 4, serum, 48 hr, 100 nM
  % apoptotic cells at given concentration (nM): 90.9%
Table 4, serum, 48 hr, 300 nM
  % apoptotic cells at given concentration (nM): 93.0%
Table 4, serum, 48 hr, 1000 nM
  % apoptotic cells at given concentration (nM): 93.2%
Table 4, serum, 48 hr, 3000 nM
  % apoptotic cells at given concentration (nM): 94.6%
[11]
  % apoptotic cells at given concentration (nM): 94.2%
[12]
  % apoptotic cells at given concentration (nM): 8.8%
[13]
  % apoptotic cells at given concentration (nM): 8.5%
[14]
  % apoptotic cells at given concentration (nM): 8.6%
[15]
  % apoptotic cells at given concentration (nM): 15.9%
[16]
  % apoptotic cells at given concentration (nM): 86.5%
[17]
  % apoptotic cells at given concentration (nM): 90.7%
[18]
  % apoptotic cells at given concentration (nM): 91.7%
[19]
  % apoptotic cells at given concentration (nM): 93.1%
Table 5, medium, 3000 nM
  % apoptotic cells at given concentration (nM): 93.7%

## CC(C)[C@]12O[C@H]1[C@@H]1O[C@]13[C@]1(O[C@H]1C[C@H]1C4=C(CC[C@@]13C)C(=O)OC4)[C@@H]2OC(=O)CCC(=O)O [PG490-88, triptolide-14-succinate, reference compound]
[1]
  % apoptotic cells at given concentration (nM): 89.2%
[2]
  % apoptotic cells at given concentration (nM): 7.8%
[3]
  % apoptotic cells at given concentration (nM): 8.1%
[4]
  % apoptotic cells at given concentration (nM): 7.8%
[5]
  % apoptotic cells at given concentration (nM): 9.1%
[6]
  % apoptotic cells at given concentration (nM): 51.5%
[7]
  % apoptotic cells at given concentration (nM): 92.1%
[8]
  % apoptotic cells at given concentration (nM): 93.9%
[9]
  % apoptotic cells at given concentration (nM): 94.1%
[10]
  % apoptotic cells at given concentration (nM): 95.1%
Table 3, medium only, 10000 nM
  % apoptotic cells at given concentration (nM): 93.8%
Table 4, medium, 10000 nM
  % apoptotic cells at given concentration (nM): 89.7%
Table 4, serum, 0 hr, 10000 nM
  % apoptotic cells at given concentration (nM): 82.9%
Table 4, serum, 48 hr, 0.03 nM
  % apoptotic cells at given concentration (nM): 6.6%
Table 4, serum, 48 hr, 0.1 nM
  % apoptotic cells at given concentration (nM): 6.5%
Table 4, serum, 48 hr, 0.3 nM
  % apoptotic cells at given concentration (nM): 7.0%
Table 4, serum, 48 hr, 1 nM
  % apoptotic cells at given concentration (nM): 6.0%
Table 4, serum, 48 hr, 3 nM
  % apoptotic cells at given concentration (nM): 6.2%
Table 4, serum, 48 hr, 10 nM
  % apoptotic cells at given concentration (nM): 6.2%
Table 4, serum, 48 hr, 30 nM
  % apoptotic cells at given concentration (nM): 6.8%
Table 4, serum, 48 hr, 100 nM
  % apoptotic cells at given concentration (nM): 30.5%
Table 4, serum, 48 hr, 300 nM
  % apoptotic cells at given concentration (nM): 89.6%
Table 4, serum, 48 hr, 1000 nM
  % apoptotic cells at given concentration (nM): 92.6%
Table 4, serum, 48 hr, 3000 nM
  % apoptotic cells at given concentration (nM): 92.8%
[11]
  % apoptotic cells at given concentration (nM): 93.9%
[12]
  % apoptotic cells at given concentration (nM): 8.6%
[13]
  % apoptotic cells at given concentration (nM): 9.3%
[14]
  % apoptotic cells at given concentration (nM): 8.7%
[15]
  % apoptotic cells at given concentration (nM): 7.8%
[16]
  % apoptotic cells at given concentration (nM): 23.3%
[17]
  % apoptotic cells at given concentration (nM): 88.4%
[18]
  % apoptotic cells at given concentration (nM): 90.5%
[19]
  % apoptotic cells at given concentration (nM): 91.7%
Table 5, medium, 3000 nM
  % apoptotic cells at given concentration (nM): 64.8%
[20]
  Conversion, as relative ED50 compared to triptolide (%): 2%
  EC50: 2580 nM
[21]
  Conversion, as relative ED50 compared to triptolide (%): 2%
  EC50: 2270 nM
[22]
  Conversion, as relative ED50 compared to triptolide (%): 18%
  EC50: 328 nM
[23]
  Conversion, as relative ED50 compared to triptolide (%): 43%
  EC50: 147 nM

## CCNC(=O)O[C@@H]1[C@@]2(C(C)C)O[C@H]2[C@@H]2O[C@]23[C@]12O[C@H]2C[C@H]1C2=C(CC[C@@]13C)C(=O)OC2 [PG666, Triptolide 14-Ethyl Carbamate]
[1]
  % apoptotic cells at given concentration (nM): 93.6%
[2]
  % apoptotic cells at given concentration (nM): 13.4%
[3]
  % apoptotic cells at given concentration (nM): 14.4%
[4]
  % apoptotic cells at given concentration (nM): 14.0%
[5]
  % apoptotic cells at given concentration (nM): 10.1%
[6]
  % apoptotic cells at given concentration (nM): 11.0%
[7]
  % apoptotic cells at given concentration (nM): 20.6%
[8]
  % apoptotic cells at given concentration (nM): 91.0%
[9]
  % apoptotic cells at given concentration (nM): 92.9%
[10]
  % apoptotic cells at given concentration (nM): 93.5%
Table 3, medium only, 10000 nM
  % apoptotic cells at given concentration (nM): 94.3%
Table 4, medium, 10000 nM
  % apoptotic cells at given concentration (nM): 92.6%
Table 4, serum, 0 hr, 10000 nM
  % apoptotic cells at given concentration (nM): 87.2%
Table 4, serum, 48 hr, 0.03 nM
  % apoptotic cells at given concentration (nM): 39.9%
Table 4, serum, 48 hr, 0.1 nM
  % apoptotic cells at given concentration (nM): 40.7%
Table 4, serum, 48 hr, 0.3 nM
  % apoptotic cells at given concentration (nM): 40.8%
Table 4, serum, 48 hr, 1 nM
  % apoptotic cells at given concentration (nM): 41.3%
Table 4, serum, 48 hr, 3 nM
  % apoptotic cells at given concentration (nM): 39.8%
Table 4, serum, 48 hr, 10 nM
  % apoptotic cells at given concentration (nM): 39.8%
Table 4, serum, 48 hr, 30 nM
  % apoptotic cells at given concentration (nM): 39.1%
Table 4, serum, 48 hr, 100 nM
  % apoptotic cells at given concentration (nM): 40.2%
Table 4, serum, 48 hr, 300 nM
  % apoptotic cells at given concentration (nM): 44.5%
Table 4, serum, 48 hr, 1000 nM
  % apoptotic cells at given concentration (nM): 88.6%
Table 4, serum, 48 hr, 3000 nM
  % apoptotic cells at given concentration (nM): 96.8%
[11]
  % apoptotic cells at given concentration (nM): 92.3%
[12]
  % apoptotic cells at given concentration (nM): 9.8%
[13]
  % apoptotic cells at given concentration (nM): 10.9%
[14]
  % apoptotic cells at given concentration (nM): 10.4%
[15]
  % apoptotic cells at given concentration (nM): 10.2%
[16]
  % apoptotic cells at given concentration (nM): 9.5%
[17]
  % apoptotic cells at given concentration (nM): 14.9%
[18]
  % apoptotic cells at given concentration (nM): 87.7%
[19]
  % apoptotic cells at given concentration (nM): 91.0%
Table 5, medium, 1 nM
  % apoptotic cells at given concentration (nM): 13.9%
Table 5, medium, 3 nM
  % apoptotic cells at given concentration (nM): 13.1%
Table 5, medium, 10 nM
  % apoptotic cells at given concentration (nM): 13.4%
Table 5, medium, 30 nM
  % apoptotic cells at given concentration (nM): 13.0%
Table 5, medium, 100 nM
  % apoptotic cells at given concentration (nM): 13.2%
Table 5, medium, 300 nM
  % apoptotic cells at given concentration (nM): 14.2%
Table 5, medium, 1000 nM
  % apoptotic cells at given concentration (nM): 14.1%
Table 5, medium, 3000 nM
  % apoptotic cells at given concentration (nM): 92.1%
[24]
  apoptotic activity (in words): more active than PG688
  concentration for equal apoptotic activity relative to PG490 (triptolide): ~10 fold
